Measured values taken from the supplement of paper PMC9334596.

System: mPer2Luc MEF
Assay: PER2::LUC luminescence relative to vehicle control (fold of vehicle); higher = higher PER2::LUC reporter signal
Experimental: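 Secondary dose-response validation of 72 circadian-modulating compounds in mPer2Luc MEFs, threefold dilution series of six doses from 10 uM down to 0.04 uM. PER2::LUC luminescence read at 24 h and 30 h after treatment, normalised to vehicle (DMSO) control.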

[1] = time after treatment: 24-hour, concentration: 0.04μM
[2] = time after treatment: 24-hour, concentration: 0.37μM
[3] = time after treatment: 24-hour, concentration: 3.33μM
[4] = time after treatment: 24-hour, concentration: 10μM
[5] = time after treatment: 30-hour, concentration: 0.04μM
[6] = time after treatment: 30-hour, concentration: 0.37μM
[7] = time after treatment: 30-hour, concentration: 3.33μM
[8] = time after treatment: 30-hour, concentration: 10μM

Compound | PER2::LUC luminescence [1] | PER2::LUC luminescence [2] | PER2::LUC luminescence [3] | PER2::LUC luminescence [4] | PER2::LUC luminescence [5] | PER2::LUC luminescence [6] | PER2::LUC luminescence [7] | PER2::LUC luminescence [8]
OCc1ccc(-c2ccc(-c3ccc(CO)s3)o2)s1 | 1.37 | 1.41 | 1.49 | 1.24 | 1.62 | 1.63 | 1.68 | 1.41
COc1ccc(C[C@H]2NC[C@H](O)[C@H]2OC(C)=O)cc1 [Anisomycin] | 0.056 | 0.032 | 0.002 | 0.001 | 0.06 | 0.05 | 0.001 | 0.001
COc1ccc(-c2nc3cc(F)ccc3s2)cc1OC | 1.36 | 1.39 | 1.36 | 1.36 | 1.66 | 1.69 | 1.67 | 1.58
CCN1CCN(Cc2ccc(NC(=O)Nc3ccc(Oc4cc(NC)ncn4)cc3)cc2C(F)(F)F)CC1 [AST 487] | 0.843 | 0.869 | 0.792 | 0.031 | 0.918 | 0.891 | 0.951 | 0.023
Cc1cccc(/C=N/Nc2cc(N3CCOCC3)n3nc(-c4ccncc4)cc3n2)c1 [APY0201] | 0.206 | 0.187 | 0.151 | 0.04 | 0.16 | 0.145 | 0.117 | 0.038
COc1cc(NC(=O)c2ccc(-c3ccc(Cl)cc3)o2)cc(OC)c1 | 0.886 | 0.894 | 0.888 | 0.875 | 0.83 | 0.878 | 0.95 | 0.864
O=C(c1ccc(F)c(F)c1Nc1ccc(I)cc1F)N1CC(O)([C@@H]2CCCCN2)C1 [Cobimetinib] | 0.419 | 0.495 | 0.11 | 0.015 | 0.459 | 0.437 | 0.168 | 0.007
Cc1cc2sc(NC(=O)Cc3ccccc3)nc2cc1Cl [LH-846] | 1.17 | 1.3 | 1.46 | 1.28 | 1.37 | 1.53 | 1.75 | 1.26
CC1=C2C[C@H]3[C@@H](CC=C4C[C@@H](O)CC[C@@]43C)[C@@H]2CC[C@]12O[C@@H]1C[C@H](C)CN[C@H]1[C@H]2C [Cyclopamine] | 0.834 | 0.74 | 0.421 | 0.178 | 0.991 | 0.999 | 0.766 | 0.229
CCc1nc(-c2cccc(C)c2)c(-c2ccnc(NC(=O)c3ccccc3)c2)s1 [TAK 715] | 0.993 | 0.95 | 0.955 | 0.895 | 0.926 | 0.929 | 0.924 | 0.888
